Reference: patent US8106155B2, “Test kit for determining process for determining antibiotics containing a beta-lactam ring in a biological fluid” (Neogen Corporation, priority 1998, dated 2012)

How the values were obtained:
BlaR-CTD receptor = target: T1, BlaR-CTD receptor (Bacillus licheniformis, UniProt P12287); assay: 5-minute test: BlaR-CTD coupled to gold beads, membrane test device, milk; format: binding; conditions: test carried out in 5 minutes, 47° C.; positive when 1st band less intense than 2nd band
T1 construct: uses the BlaR-CTD receptor coupled to gold beads
Protocol: This example illustrates the detection in milk of antibiotics containing a β-lactam ring, which are controlled by the health authorities. The test described in this example uses the BlaR-CTD receptor coupled to gold beads which serve as labelling agents, and uses a support in the form of a test device comprising a solid support to which membranes are attached.
6 samples of fresh milk containing 0; 2; 4; 6; 8 and 10 ppb of cloxacillin, respectively, are prepared. Each of these solutions is then analyzed in the following way.
A 200 μl aliquot sample of milk and 45.27 μl of solution prepared in Example 1.1.3 are taken and placed in a glass flask. This mixture is incubated for 3 minutes at 47° C. A test device is taken and placed vertically in the glass flask such that the first end of the test device is in contact with the mixture and such that the second end rests on the wall of the glass flask. The mixture is left to migrate on the test device, while incubating the assembly for 2 minutes at 47° C.
An intensity value ranging from 0 to 10 is attributed to the bands detected, the value 10 being given to the most intense band and the value 0 being given to the least intense band. According to this scale, a value of 6 is assigned to the reference band. The intensity of the signal observed in the first band is inversely proportional to the amount of cloxacillin present in the sample.
In this example, when the first band has an intesity less than that of the second band, the test is considered as being positive.

[1] = target: T2, BlaR-CTD-β-lactamase fusion protein (UniProt P04190+P12287); assay: Example 2: BlaR-CTD-β-lactamase fusion protein with cephalosporin C magnetic beads, milk; format: binding, Bacillus licheniformis; conditions: nitrocefine absorbance at 482 nm, 47° C., detection at concentrations below the US standards listed
T2 construct: made in house; host or cells: E. coli
T2 sequence (P12287+P04190 with tags, fused parts or gaps): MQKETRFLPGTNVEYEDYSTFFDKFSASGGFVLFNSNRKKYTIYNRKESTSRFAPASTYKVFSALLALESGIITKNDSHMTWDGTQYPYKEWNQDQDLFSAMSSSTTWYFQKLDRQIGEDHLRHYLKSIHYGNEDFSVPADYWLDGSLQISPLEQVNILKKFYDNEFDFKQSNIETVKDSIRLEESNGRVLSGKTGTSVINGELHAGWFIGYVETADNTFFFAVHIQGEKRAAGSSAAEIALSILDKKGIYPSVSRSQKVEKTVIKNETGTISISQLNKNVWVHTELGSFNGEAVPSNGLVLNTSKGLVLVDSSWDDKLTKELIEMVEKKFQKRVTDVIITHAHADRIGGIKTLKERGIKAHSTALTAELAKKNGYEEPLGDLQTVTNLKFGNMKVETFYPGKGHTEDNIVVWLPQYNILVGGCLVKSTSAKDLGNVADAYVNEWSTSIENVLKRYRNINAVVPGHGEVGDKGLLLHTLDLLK
Excerpt: This example illustrates the detection in milk of the 6 antibiotics containing a β-lactam ring which are controlled by the US authorities. The test described in this example uses the BlaR-CTD receptor in the form of a fusion protein with β-lacatamase and uses a support in the form of magnetic beads.
The BlaR-CTD-β-lactamase fusion protein is obtained by genetic coupling between the BlaR-CTD receptor (B. Joris et al., FEMS Microbiology Letters, 107-114, 1990) and Zn β-lactamase from Bacillus cereus (M. Hussain et al., 1985, J. Bact., 164:1, 223-229, 1985).
BioMag 4100 particles (available from DRG Instrument GmbH, Marburg, Germany, under the reference AM 4100 B) are used, the NH2 ends of which have been activated with glutaraldehyde in the following way: • one volume of initial solution of BioMag 4100 particles is rinsed 4 times with 5 volumes of 0.01M pH 6.0 pyridine buffer. The particles are taken up in 2.5 volumes of glutaraldehyde at 5% in pyridine buffer and are agitated by rotation for 3 hours at room temperature. They are then rinsed 10 times with 2 volumes of 0.01 M pH 7.0 Kpi buffer. The particles are then resuspended in 1 volume of 0.1 M cephalosporin C in Kpi buffer and are agitated by rotation overnight at +4° C. The final rinsing is carried out until the cephalasporin C has been completely removed from the 0.1 M pH 7.0 Kpi buffer. 2.3. Determination of the 6 Antibiotics Penicillin G, Ampicillin, Amoxicillin, Cloxacillin, Cephapirin and Certiofur in Milk. […]
50 μl of solution 1 are placed in the presence of […] of doped milk samples and incubated at 47° C. for 2 minutes. […] The absorbance of the residual solution at 482 nm is then measured relative to the nitrocefine solution.

[2] = target: T3, BlaR-CTD receptor in the form of a fusion protein with alkaline phosphatase or peroxidase (Bacillus licheniformis, UniProt P12287); assay: Example 4: BlaR-CTD fusion protein with alkaline phosphatase or peroxidase, coated tube, milk; format: binding; conditions: absorbance at 405 nm, 47° C.
T3 construct: uses the BlaR-CTD receptor in the form of a fusion protein with alkaline phosphatase or peroxidase
Protocol: The test described in this example uses the BlaR-CTD receptor in the form of a fusion protein with alkaline phosphatase or peroxidase, and uses a support in the form of a coated tube.
In this example, polystyrene tubes with high protein absorption of the brand name NUNK (Maxisorp type) are used, which are treated with a reference antibiotic solution as indicated in Example 3.3.2.
7 picomol of recognition agent are incubated in the presence of 500 μl of milk for 5 minutes at 47° C. in an Eppendorf tube. […] The milk is then incubated for 2 minutes at 47° C. After removing the milk, the tube is washed twice with 1 ml of 1 M, pH 9.8 diethanolamine buffer, 0.5 mM MgCl2. […] The absorbance of the supernatant is then measured using a spectrophotometer whose wavelength is set at 405 nm.

| SMILES | concentration detected in a sample of milk (BlaR-CTD receptor) [ppb] | concentration detected in milk [1] [ppb] | concentration determined in milk [2] |
| --- | --- | --- | --- |
| CO/N=C(\C(=O)N[C@@H]1C(=O)N2C(C(=O)O)=C(CSC(=O)c3ccco3)CS[C@H]12)c1csc(N)n1 [ceftiofur] | 100 | < 50 | less than 50 ppb |
| CC(=O)OCC1=C(C(=O)O)N2C(=O)[C@@H](NC(=O)CSc3ccncc3)[C@H]2SC1 [cephapirin] | 16 | < 20 | less than 20 ppb |
| CC1(C)S[C@@H]2[C@H](NC(=O)Cc3ccccc3)C(=O)N2[C@H]1C(=O)O [penicillin G] | 3 | < 5 | less than 5 ppb |
